In data set [1] the test system is many animal species. Particulars: in vivo; cited from earlier work.
For data set [2], the system named is IgM antibody affinity matrix. The format is binding, mouse.

The values below come from US4859611A (priority 1986, dated 1989).

For `COc1cc2c(c3oc(=O)c4c(c13)CCC4=O)[C@@H]1C=CO[C@@H]1O2` [AFB1, aflatoxin B1], the “toxic, mutagenic and carcinogenic effect” value in data set [1] was “toxic, mutagenic and carcinogenic”. Also, the “capacity of affinity matrix to bind AFB1” value in data set [2] was in the range of 1.0 to 1.3 µg.
